The target of the first assay is BIR3 domain of human cIAP1 (amino acids 256 to 363; cIAP1 BIR3) (Homo sapiens (Human), UniProt Q13490). In words: cIAP1 BIR3 binding assay (DELFIA).
BIR3 domain of human cIAP1 (amino acids 256 to 363; cIAP1 BIR3), sequence (Q13490 256-363): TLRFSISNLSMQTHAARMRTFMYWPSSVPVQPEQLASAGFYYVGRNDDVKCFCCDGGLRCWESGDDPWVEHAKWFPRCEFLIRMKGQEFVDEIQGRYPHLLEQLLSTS
Settings: not given
The method, then: XIAP BIR3 and cIAP1 BIR3 Binding Assays (DELFIA)
Peptide […]-Lys(Biotin), representing the N-terminus of mature human SMAC (SMAC peptide), was used as interaction partner in the protein-peptide interaction assay.
BIR3 domains (10 nM) were incubated with SMAC peptide (10 nM) in assay buffer (50 mM Tris, 120 mM NaCl, 0.1% BSA, 1 mM DTT, 0.05% TritonX100) for one hour at room temperature in the presence of inhibitory compounds. The assay mixture was transferred to a streptavidin coated plate and incubated for one hour at room temperature to allow binding of the biotinylated peptide and associated BIR3 domains to the plate. After several washing steps Eu labeled anti-GST antibody (e.g. Perkin Elmer DELFIA Eu-N1-antiGST AD0250) was added to detect BIR3 domain-SMAC peptide interactions m according to Perkin Elmer's instructions. […] Time resolved Europium fluoresecence was measured in a Wallac Victor using Standard assay settings.
DELFIA assay results were plotted against compound concentrations and Software GraphPad Prizm was used to calculate half maximal inhibitory concentrations (IC50 values).
`CNC(C)C(=O)Nc1cc(-c2ncnc3cccc(C)c23)cc(NC(=O)c2ccc(Cl)cn2)n1` (centres unmarked) [Example 9, 5-chloro-N-{6-[2-(methylamino)propanamido]-4-(5-methylquinazolin-4-yl)pyridin-2-yl}pyridine-2-carboxamide] came in with an IC50 of 1 nM.

The same assay, now with this note: BIR3 domain 10 nM, SMAC peptide 10 nM; values represent the (S)-isomers; * = racemic compound; read-out: cIAP1 BIR-3 IC50.
With `CNC(C)C(=O)Nc1cc(-c2nccc3c(=O)n(C)n(C)c23)cc(NC(=O)c2ccc(Cl)cn2)n1` (racemic) [Example 58, 5-chloro-N-(4-{1,2-dimethyl-3-oxo-1H,2H,3H-pyrazolo-[3,4-c]pyridin-7-yl}-6-[2-(methylamino)propanamido]-pyridin-2-yl)pyridine-2-carboxamide], the 50% inhibitory concentration (IC50) is 3 nM.

`CNC(C)C(=O)Nc1cc(-c2ncnc3c(C)nn(C)c23)cc(NC(=O)c2ccc(Cl)cn2)n1` (centres unmarked) [Example 1, 5-chloro-N-(4-{1,3-dimethyl-1H-pyrazolo[4,3-d]pyrimidin-7-yl}-6-[2-(methylamino)propanamido]pyridin-2-yl)pyridine-2-carboxamide]: the IC50 was 1 nM.

With `CNC(C)C(=O)Nc1cc(-c2ncnc3c(C)nn(C)c23)cc(NC(=O)c2cc3c(cn2)COC3)n1` (centres unmarked) [Example 2, N-(4-{1,3-dimethyl-1H-pyrazolo[4,3-d]pyrimidin-7-yl}-6-[2-(methylamino)propanamido]-pyridin-2-yl)-1H,3H-furo[3,4-c]pyridine-6-carboxamide], the IC50 amounted to 2 nM.

For the compound `CNC(C)C(=O)Nc1cc(-c2c(C)noc2C)cc(NC(=O)c2ccc(Cl)cn2)n1` (centres unmarked) [Example 3, 5-chloro-N-[4-(dimethyl-1,2-oxazol-4-yl)-6-[2-(methylamino)propanamido]-pyridin-2-yl]pyridine-2-carboxamide], the IC50 amounted to 3 nM.

`CNC(C)C(=O)Nc1cc(-c2ccncc2C#N)cc(NC(=O)c2ccc(Cl)cn2)n1` (centres unmarked) [Example 4, 5-chloro-N-[4-(3-cyanopyridin-4-yl)-6-[2-(methylamino)propanamido]-pyridin-2-yl]pyridine-2-carboxamide]: the IC50 was 28 nM.

As for `CNC(C)C(=O)Nc1cc(-c2c(C)ncnc2C)cc(NC(=O)c2ccc(Cl)cn2)n1` (centres unmarked) [Example 5, 5-chloro-N-[4-(4,6-dimethylpyrimidin-5-yl)-6-[2-(methylamino)propanamido]-pyridin-2-yl]pyridine-2-carboxamide], the 50% inhibitory concentration (IC50) is 5 nM.

As for `CNC(C)C(=O)Nc1cc(-c2c(C)nc3ccccn23)cc(NC(=O)c2ccc(Cl)cn2)n1` (centres unmarked) [Example 6, 5-chloro-N-{6-[2-(methylamino)propanamido]-4-{2-methylimidazo[1,2-a]pyridin-3-yl}pyridin-2-yl}pyridine-2-carboxamide], the IC50 came to 10 nM.

As to `CNC(C)C(=O)Nc1cc(-c2cccc3cnn(C)c23)cc(NC(=O)c2ccc(Cl)cn2)n1` (centres unmarked) [Example 7, 5-chloro-N-[4-(1-methyl-1H-indazol-7-yl)-6-[2-(methylamino)propanamido]-pyridin-2-yl]pyridine-2-carboxamide], the half-inhibitory concentration (IC50) was 3 nM.

`CNC(C)C(=O)Nc1cc(-c2nccc3cccc(C)c23)cc(NC(=O)c2ccc(Cl)cn2)n1` (centres unmarked) [Example 8, 5-chloro-N-{6-[2-(methylamino)propanamido]-4-(8-methylisoquinolin-1-yl)pyridin-2-yl}pyridine-2-carboxamide]: the IC50 stood at 1 nM.

Regarding `CNC(C)C(=O)Nc1cc(-c2c(C)nc3cccc(C)n23)cc(NC(=O)c2ccc(Cl)cn2)n1` (centres unmarked) [Example 10, 5-chloro-N-(4-{2,5-dimethylimidazo[1,2-a]pyridin-3-yl]-6-[2-(methylamino)propanamido]-pyridin-2-yl)pyridine-2-carboxamide], the IC50 came to 7 nM.

`CNC(C)C(=O)Nc1cc(-c2cccc3nc(C)c(C)n23)cc(NC(=O)c2ccc(Cl)cn2)n1` (centres unmarked) [Example 11]: the IC50 stood at 1 nM.

Regarding `CNC(C)C(=O)Nc1cc(-c2cccc3nn(C)c(C)c23)cc(NC(=O)c2ccc(Cl)cn2)n1` (centres unmarked) [Example 12, 5-chloro-N-[4-(2,3-dimethyl-2H-indazol-4-yl)-6-[2-(methylamino)propanamido]-pyridin-2-yl]pyridine-2-carboxamide], the IC50 is 3 nM.

As to `CNC(C)C(=O)Nc1cc(-c2cccc3c2c(C)nn3C)cc(NC(=O)c2ccc(Cl)cn2)n1` (centres unmarked) [Example 13, 5-chloro-N-[4-(1,3-dimethyl-1H-indazol-4-yl)-6-[2-(methylamino)propanamido]-pyridin-2-yl]pyridine-2-carboxamide], the IC50 is 2 nM.

On to `CNC(C)C(=O)Nc1cc(-c2ncnc3cccc(F)c23)cc(NC(=O)c2ccc(Cl)cn2)n1` (centres unmarked) [Example 14, 5-chloro-N-[4-(5-fluoroquinazolin-4-yl)-6-[2-(methylamino)propanamido]-pyridin-2-yl]pyridine-2-carboxamide], for which the IC50 was 1 nM.

`CNC(C)C(=O)Nc1cc(-c2ncnc3oc(C)c(C)c23)cc(NC(=O)c2ccc(Cl)cn2)n1` (centres unmarked) [Example 15, 5-chloro-N-(4-{5,6-dimethylfuro[2,3-d]pyrimidin-4-yl}-6-[2-(methylamino)propanamido]-pyridin-2-yl)pyridine-2-carboxamide]: the IC50 turned out to be 1 nM.

In the case of `CNC(C)C(=O)Nc1cc(-c2ncnc3nc(C)n(C)c23)cc(NC(=O)c2ccc(Cl)cn2)n1` (centres unmarked) [Example 16, 5-chloro-N-[4-(7,8-dimethyl-7H-purin-6-yl)-6-[2-(methylamino)propanamido]-pyridin-2-yl]pyridine-2-carboxamide], the IC50 was 1 nM.

On to `CNC(C)C(=O)Nc1cc(-c2nn(C)c3ncnc(N)c23)cc(NC(=O)c2ccccn2)n1` (centres unmarked) [Example 17, N-(4-{4-amino-1-methyl-1H-pyrazolo[3,4-d]pyrimidin-3-yl}-6-[2-(methylamino)propanamido]-pyridin-2-yl)pyridine-2-carboxamide], for which the IC50 stood at 95 nM.

With `CNC(C)C(=O)Nc1cc(-c2cnc3cccc(Cl)n23)cc(NC(=O)c2ccc(Cl)cn2)n1` (centres unmarked) [Example 18, 5-chloro-N-(4-{5-chloroimidazo[1,2-a]pyridin-3-yl}-6-[2-(methylamino)propanamido]-pyridin-2-yl)pyridine-2-carboxamide], the IC50 turned out to be 1 nM.

In the case of `CNC(C)C(=O)Nc1cc(-c2c(OC)ccc3ccccc23)cc(NC(=O)c2ccc(Cl)cn2)n1` (centres unmarked) [Example 19, 5-chloro-N-[4-(2-methoxynaphthalen-1-yl)-6-[2-(methylamino)propanamido]-pyridin-2-yl]pyridine-2-carboxamide], the IC50 amounted to 225 nM.

Regarding `CNC(C)C(=O)Nc1cc(-c2c(OC)ccc3nccnc23)cc(NC(=O)c2ccc(Cl)cn2)n1` (centres unmarked) [Example 20, 5-chloro-N-[4-(6-methoxyquinoxalin-5-yl)-6-[2-(methylamino)propanamido]-pyridin-2-yl]pyridine-2-carboxamide], the IC50 was 50 nM.

Consider `CNC(C)C(=O)Nc1cc(-c2nc(C)nc3c(C)nn(C)c23)cc(NC(=O)c2ccc(Cl)cn2)n1` (centres unmarked) [Example 21, 5-chloro-N-{6-[2-(methylamino)propanamido]-4-{trimethyl-1H-pyrazolo[4,3-d]pyrimidin-7-yl}pyridin-2-yl}pyridine-2-carboxamide], for which the IC50 turned out to be 1 nM.

In the case of `CNC(C)C(=O)Nc1cc(-c2ncnc3cccc(Cl)c23)cc(NC(=O)c2ccc(Cl)cn2)n1` (centres unmarked) [Example 22, 5-chloro-N-[4-(5-chloroquinazolin-4-yl)-6-[2-(methylamino)propanamido]-pyridin-2-yl]pyridine-2-carboxamide], the IC50 came out at 1 nM.

Values taken from patent publication US9249151B2, “Bis-amido pyridines” (Boehringer Ingelheim International GmbH, priority 2013, dated 2016).
